Measured values: patent publication US10513522B2, “Azetidinyl phenyl, pyridyl or pyrazinyl carboxamide derivatives as JAK inhibitors” (Incyte Corporation, priority 2011, dated 2019)

Tested on: human JAK1 (a.a. 837-1142)
Assay: In vitro JAK kinase assay (HTRF, phosphorylation of biotinylated peptide), JAK1
Format: biochemical
Details: ratio of IC50 at 1 mM ATP
Description: The catalytic activity of JAK1, JAK2 or JAK3 was assayed by measuring the phosphorylation of a biotinylated peptide. The phosphorylated peptide was detected by homogenous time resolved fluorescence (HTRF). […] Reactions were carried out at room temperature for 1 hour and then stopped with 20 μL 45 mM EDTA, 300 nM SA-APC, 6 nM Eu-Py20 in assay buffer (Perkin Elmer, Boston, Mass.). Binding to the Europium labeled antibody took place for 40 minutes and HTRF signal was measured on a Fusion plate reader (Perkin Elmer, Boston, Mass.).

SMILES	JAK2/JAK1
CC(C)NC(=O)c1ccc(N2CC(CC#N)(n3cc(-c4ncnc5[nH]ccc45)cn3)C2)cc1 [Example 13, 4-{3-(Cyanomethyl)-3-[4-(7H-pyrrolo[2,3-d]pyrimidin-4-yl)-1H-pyrazol-1-yl]azetidin-1-yl}-N-isopropylbenzamide]	A (A means greater than or equal to 10)
CC[C@@H](C)NC(=O)c1ccc(N2CC(CC#N)(n3cc(-c4ncnc5[nH]ccc45)cn3)C2)cc1.O=C(O)C(F)(F)F.O=C(O)C(F)(F)F [Example 25, 4-{3-(Cyanomethyl)-3-[4-(7H-pyrrolo[2,3-d]pyrimidin-4-yl)-1H-pyrazol-1-yl]azetidin-1-yl}-N-[(1R)-1-methylpropyl]benzamide bis(trifluoroacetate)]	A (A means greater than or equal to 10)
CC(C)NC(=O)c1cc(F)c(N2CC(CC#N)(n3cc(-c4ncnc5[nH]ccc45)cn3)C2)cc1F [Example 6, 4-{3-(Cyanomethyl)-3-[4-(7H-pyrrolo[2,3-d]pyrimidin-4-yl)-1H-pyrazol-1-yl]azetidin-1-yl}-2,5-difluoro-N-isopropylbenzamide]	A (A means greater than or equal to 10)
N#CCC1(n2cc(-c3ncnc4[nH]ccc34)cn2)CN(c2ccc(C(=O)NC3CC(F)(F)C3)nc2)C1 [Example 12, 5-{3-(Cyanomethyl)-3-[4-(7H-pyrrolo[2,3-d]pyrimidin-4-yl)-1H-pyrazol-1-yl]azetidin-1-yl}-N-(3,3-difluorocyclobutyl)pyridine-2-carboxamide]	A (A means greater than or equal to 10)
CC(C)NC(=O)c1ccc(N2CC(CC#N)(n3cc(-c4ncnc5[nH]ccc45)cn3)C2)cn1 [Example 9, 5-{3-(Cyanomethyl)-3-[4-(7H-pyrrolo[2,3-d]pyrimidin-4-yl)-1H-pyrazol-1-yl]azetidin-1-yl}-N-isopropylpyridine-2-carboxamide]	A (A means greater than or equal to 10)
CC(C)NC(=O)c1ccc(N2CC(CC#N)(n3cc(-c4ccnc5[nH]ccc45)cn3)C2)c(F)c1 [Example 27, 4-{3-(Cyanomethyl)-3-[4-(1H-pyrrolo[2,3-b]pyridin-4-yl)-1H-pyrazol-1-yl]azetidin-1-yl}-3-fluoro-N-isopropylbenzamide]	A (A means greater than or equal to 10)
C[C@H](NC(=O)c1ccc(N2CC(CC#N)(n3cc(-c4ncnc5[nH]ccc45)cn3)C2)cn1)C1CC1 [Example 11, 5-{3-(Cyanomethyl)-3-[4-(7H-pyrrolo[2,3-d]pyrimidin-4-yl)-1H-pyrazol-1-yl]azetidin-1-yl}-N-[(1S)-1-cyclopropylethyl]pyridine-2-carboxamide]	A (A means greater than or equal to 10)
N#CCC1(n2cc(-c3ncnc4[nH]ccc34)cn2)CN(c2cnc(C(=O)NC3(C(F)(F)F)CC3)cn2)C1 [Example 33, 5-{3-(Cyanomethyl)-3-[4-(7H-pyrrolo[2,3-d]pyrimidin-4-yl)-1H-pyrazol-1-yl]azetidin-1-yl}-N-[1-(trifluoromethyl)cyclopropyl]pyrazine-2-carboxamide]	A (A means greater than or equal to 10)
C[C@@H](NC(=O)c1cc(F)c(N2CC(CC#N)(n3cc(-c4ncnc5[nH]ccc45)cn3)C2)cc1F)C1CC1 [Example 21, 4-{3-(Cyanomethyl)-3-[4-(7H-pyrrolo[2,3-d]pyrimidin-4-yl)-1H-pyrazol-1-yl]azetidin-1-yl}-N-[(1R)-1-cyclopropylethyl]-2,5-difluorobenzamide]	A (A means greater than or equal to 10)
CN(C(=O)c1ccc(N2CC(CC#N)(n3cc(-c4ncnc5[nH]ccc45)cn3)C2)c(F)c1)C1CC1 [Example 7, 4-{3-(Cyanomethyl)-3-[4-(7H-pyrrolo[2,3-d]pyrimidin-4-yl)-1H-pyrazol-1-yl]azetidin-1-yl}-N-cyclopropyl-3-fluoro-N-methylbenzamide]	A (A means greater than or equal to 10)
